System: Transport facilitation protein genes
Test: DNA chip mRNA expression in yeast, transport facilitation protein genes (Table 5)
Type: cell-based, Saccharomyces cerevisiae S288C
In short: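 S. cerevisiae S288C grown at 25° C in YPD were exposed in log phase for two hours to one toxic chemical at a growth-inhibiting, non-lethal concentration; untreated cells served as control. Poly(A) mRNA was reverse-transcribed with Cy3/Cy5-dUTP and hybridized to a whole-genome yeast DNA chip at 65° C for over 12 hours; values are fluorescence ratios versus untreated.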

Cl[C@H]1[C@H](Cl)[C@@H](Cl)[C@@H](Cl)[C@H](Cl)[C@H]1Cl [(7), γ-hexachlorocyclohexane]
The level of expressed mRNA in the presence of chemical substance/The level of expressed mRNA in the absence of chemical substance (yeast gene YBL030C): 0.9
The level of expressed mRNA in the presence of chemical substance/The level of expressed mRNA in the absence of chemical substance (yeast gene YBL099W): 0.9
The level of expressed mRNA in the presence of chemical substance/The level of expressed mRNA in the absence of chemical substance (yeast gene YBR052C): 3.0
The level of expressed mRNA in the presence of chemical substance/The level of expressed mRNA in the absence of chemical substance (yeast gene YBR127C): 0.9
The level of expressed mRNA in the presence of chemical substance/The level of expressed mRNA in the absence of chemical substance (yeast gene YBR132C): 1.1
The level of expressed mRNA in the presence of chemical substance/The level of expressed mRNA in the absence of chemical substance (yeast gene YBR207W): 4.3
The level of expressed mRNA in the presence of chemical substance/The level of expressed mRNA in the absence of chemical substance (yeast gene YBR293W): 0.9
The level of expressed mRNA in the presence of chemical substance/The level of expressed mRNA in the absence of chemical substance (yeast gene YBR294W): 1.1
The level of expressed mRNA in the presence of chemical substance/The level of expressed mRNA in the absence of chemical substance (yeast gene YBR295W): 1.6
The level of expressed mRNA in the presence of chemical substance/The level of expressed mRNA in the absence of chemical substance (yeast gene YBR298C): 1.7
The level of expressed mRNA in the presence of chemical substance/The level of expressed mRNA in the absence of chemical substance (yeast gene YCL025C): 0.7
The level of expressed mRNA in the presence of chemical substance/The level of expressed mRNA in the absence of chemical substance (yeast gene YCL038C): 1.5
The level of expressed mRNA in the presence of chemical substance/The level of expressed mRNA in the absence of chemical substance (yeast gene YCR024C-A): 0.8
The level of expressed mRNA in the presence of chemical substance/The level of expressed mRNA in the absence of chemical substance (yeast gene YCR037C): 1.0
The level of expressed mRNA in the presence of chemical substance/The level of expressed mRNA in the absence of chemical substance (yeast gene YCR098C): 1.2
The level of expressed mRNA in the presence of chemical substance/The level of expressed mRNA in the absence of chemical substance (yeast gene YDL128W): 0.9
The level of expressed mRNA in the presence of chemical substance/The level of expressed mRNA in the absence of chemical substance (yeast gene YDL198C): 1.0
The level of expressed mRNA in the presence of chemical substance/The level of expressed mRNA in the absence of chemical substance (yeast gene YDL210W): 0.8
The level of expressed mRNA in the presence of chemical substance/The level of expressed mRNA in the absence of chemical substance (yeast gene YDL245C): 1.2
The level of expressed mRNA in the presence of chemical substance/The level of expressed mRNA in the absence of chemical substance (yeast gene YDR038C): 0.7
The level of expressed mRNA in the presence of chemical substance/The level of expressed mRNA in the absence of chemical substance (yeast gene YDR039C): 0.8
The level of expressed mRNA in the presence of chemical substance/The level of expressed mRNA in the absence of chemical substance (yeast gene YDR086C): 2.0
The level of expressed mRNA in the presence of chemical substance/The level of expressed mRNA in the absence of chemical substance (yeast gene YDR270W): 1.7
The level of expressed mRNA in the presence of chemical substance/The level of expressed mRNA in the absence of chemical substance (yeast gene YDR298C): 1.0
The level of expressed mRNA in the presence of chemical substance/The level of expressed mRNA in the absence of chemical substance (yeast gene YDR342C): 0.8
The level of expressed mRNA in the presence of chemical substance/The level of expressed mRNA in the absence of chemical substance (yeast gene YDR343C): 0.7
The level of expressed mRNA in the presence of chemical substance/The level of expressed mRNA in the absence of chemical substance (yeast gene YDR345C): 1.1
The level of expressed mRNA in the presence of chemical substance/The level of expressed mRNA in the absence of chemical substance (yeast gene YDR387C): 1.3
The level of expressed mRNA in the presence of chemical substance/The level of expressed mRNA in the absence of chemical substance (yeast gene YDR497C): 0.5
The level of expressed mRNA in the presence of chemical substance/The level of expressed mRNA in the absence of chemical substance (yeast gene YEL027W): 0.8
The level of expressed mRNA in the presence of chemical substance/The level of expressed mRNA in the absence of chemical substance (yeast gene YEL063C): 0.7
The level of expressed mRNA in the presence of chemical substance/The level of expressed mRNA in the absence of chemical substance (yeast gene YEL065W): 4.3
The level of expressed mRNA in the presence of chemical substance/The level of expressed mRNA in the absence of chemical substance (yeast gene YER053C): 2.8
The level of expressed mRNA in the presence of chemical substance/The level of expressed mRNA in the absence of chemical substance (yeast gene YFL011W): 0.8
The level of expressed mRNA in the presence of chemical substance/The level of expressed mRNA in the absence of chemical substance (yeast gene YFL041W): 3.4
The level of expressed mRNA in the presence of chemical substance/The level of expressed mRNA in the absence of chemical substance (yeast gene YFL050C): 0.8
The level of expressed mRNA in the presence of chemical substance/The level of expressed mRNA in the absence of chemical substance (yeast gene YFL054C): 1.1
The level of expressed mRNA in the presence of chemical substance/The level of expressed mRNA in the absence of chemical substance (yeast gene YGL006W): 1.3
The level of expressed mRNA in the presence of chemical substance/The level of expressed mRNA in the absence of chemical substance (yeast gene YGL008C): 1.4
The level of expressed mRNA in the presence of chemical substance/The level of expressed mRNA in the absence of chemical substance (yeast gene YGL104C): 1.2
The level of expressed mRNA in the presence of chemical substance/The level of expressed mRNA in the absence of chemical substance (yeast gene YGL167C): 1.2
The level of expressed mRNA in the presence of chemical substance/The level of expressed mRNA in the absence of chemical substance (yeast gene YGL255W): 1.0
The level of expressed mRNA in the presence of chemical substance/The level of expressed mRNA in the absence of chemical substance (yeast gene YGR055W): 0.6
The level of expressed mRNA in the presence of chemical substance/The level of expressed mRNA in the absence of chemical substance (yeast gene YGR065C): 2.4
The level of expressed mRNA in the presence of chemical substance/The level of expressed mRNA in the absence of chemical substance (yeast gene YGR082W): 0.9
The level of expressed mRNA in the presence of chemical substance/The level of expressed mRNA in the absence of chemical substance (yeast gene YGR096W): 0.9
The level of expressed mRNA in the presence of chemical substance/The level of expressed mRNA in the absence of chemical substance (yeast gene YGR138C): 0.7
The level of expressed mRNA in the presence of chemical substance/The level of expressed mRNA in the absence of chemical substance (yeast gene YGR191W): 0.7
The level of expressed mRNA in the presence of chemical substance/The level of expressed mRNA in the absence of chemical substance (yeast gene YGR197C): 1.3
The level of expressed mRNA in the presence of chemical substance/The level of expressed mRNA in the absence of chemical substance (yeast gene YGR224W): 0.4

Reference: patent publication US8192962B2, “Processes for detecting toxic substances” (Daikin Industries, Ltd., priority 2001, dated 2012)
